Values of other authors, collected in patent publication US4076804A, “Erythromycin therapy” (Abbott Laboratories, priority 1976, dated 1978).

Conditions: general statement, no test described

In the case of `CCOC(=O)CCC(=O)O[C@H]1[C@H](O[C@@H]2[C@@H](C)[C@H](O[C@H]3C[C@@](C)(OC)[C@@H](O)[C@H](C)O3)[C@@H](C)C(=O)O[C@H](CC)[C@@](C)(O)[C@H](O)[C@@H](C)C(=O)[C@H](C)C[C@@]2(C)O)O[C@H](C)C[C@@H]1N(C)C` [EES, erythromycin ethyl succinate], the toxicity is listed as “very low toxicity”.
